The assay relates to MLKL phosphorylation in HT29-L23 human colorectal adenocarcinoma cells. Description: MLKL phosphorylation high-content assay. It counts as cell-based. To be noted: read-out: pMLKL IC50.
[1] abbreviates: Homo sapiens, 6 h, HT29-L23 cells, necroptosis induced with TNFα, SMAC mimetic and Z-VAD, 6 h, maximal inhibition defined by Nec1s.
Where [2] appears, read: HT29-L23 cells, necroptosis induced with TNFα, SMAC mimetic and Z-VAD, 6 h, maximal inhibition defined by Nec1s.

Where two headings read alike, the source gives them in different places.

On to `Cc1ccc(-c2ccn3nc(N)nc3c2)c(F)c1C(=O)NCC(C)(O)C(=O)c1ccc(F)cc1` (stereo not shown) [Example 279, 3-(2-amino-[1,2,4]triazolo[1,5-a]pyridin-7-yl)-2-fluoro-N-(3-(4-fluorophenyl)-2-hydroxy-2-methyl-3-oxopropyl)-6-methylbenzamide], for which the IC50 under setting [1] amounted to 8.3 nM and the IC50 (Homo sapiens, Table 22, compounds of the present invention) was determined as 8.3 nM.
Take `[2H]C([2H])([2H])C(O)(c1ccc(F)cc1)C(F)CNC(=O)c1c(C(F)F)ccc(-c2ccn3nc(N)nc3c2)c1F` (single isomer, unassigned) [Example 197, 3-(2-amino-[1,2,4]triazolo[1,5-a]pyridin-7-yl)-6-(difluoromethyl)-2-fluoro-N-(2-fluoro-3-(4-fluorophenyl)-3-hydroxybutyl-4,4,4-d3)benzamide]: under setting [2], the IC50 stood at 0.3 nM.
As for `Nc1nc2cc(-c3ccc(F)c(C(=O)NCC(F)(F)[C@@H](F)c4ccc(F)cc4)c3F)ccn2n1` [Example 285, (S)-3-(2-amino-[1,2,4]triazolo[1,5-a]pyridin-7-yl)-2,6-difluoro-N-(2,2,3-trifluoro-3-(4-fluorophenyl)propyl)benzamide], the IC50 under setting [1] was found to be 0.8 nM.
On the same count and under the same terms, the result for `C[C@@](O)(c1ccc(F)cc1)[C@@H](F)CNC(=O)c1c(Cl)ccc(-c2ccn3nc(N)nc3c2)c1F` [Example 211, 3-(2-amino-[1,2,4]triazolo[1,5-a]pyridin-7-yl)-6-chloro-2-fluoro-N-((2S,3R)-2-fluoro-3-(4-fluorophenyl)-3-hydroxybutyl)benzamide] reads 45 nM; that for `Nc1nc2cc(-c3ccc(Cl)c(C(=O)NCC(F)(F)[C@H](F)c4ccc(F)cc4)c3F)ccn2n1` [Example 288, (R)-3-(2-amino-[1,2,4]triazolo[1,5-a]pyridin-7-yl)-6-chloro-2-fluoro-N-(2,2,3-trifluoro-3-(4-fluorophenyl)propyl)benzamide], 1 nM.
`CCc1ccc(-c2ccn3nc(N)nc3c2)c(F)c1C(=O)NCC(F)(F)C(O)c1ccc(F)cc1` (stereo not shown) [Example 121, 3-(2-amino-[1,2,4]triazolo[1,5-a]pyridin-7-yl)-N-(2,2-difluoro-3-(4-fluorophenyl)-3-hydroxypropyl)-6-ethyl-2-fluorobenzamide]: the IC50 under setting [1] turned out to be 1 nM.
As to `COc1ccc(-c2ccn3nc(N)nc3c2)c(F)c1C(=O)NCC(F)(F)C(O)c1ccc(F)cc1` (single isomer, unassigned) [Example 125, 3-(2-amino-[1,2,4]triazolo[1,5-a]pyridin-7-yl)-N-(2,2-difluoro-3-(4-fluorophenyl)-3-hydroxypropyl)-2-fluoro-6-methoxybenzamide], the IC50 under setting [2] was 2.9 nM.
With `Nc1nc2cc(-c3cc(C(=O)NCC(F)(F)C(O)c4ccc(F)cc4)c(Cl)cc3Cl)ccn2n1` (racemic) [Example 127], under setting [1], the IC50 turned out to be 9.7 nM.
The same measure, in the same setting: as for `CCc1ccc(-c2ccn3nc(N)nc3c2)c(F)c1C(=O)NCC(F)(F)C(O)c1ccc(F)cc1` (single isomer, unassigned) [Example 120, 3-(2-amino-[1,2,4]triazolo[1,5-a]pyridin-7-yl)-N-(2,2-difluoro-3-(4-fluorophenyl)-3-hydroxypropyl)-6-ethyl-2-fluorobenzamide], the figure is 1.4 nM.
Consider `CCC(O)(c1ccc(F)cc1)C(F)(F)CNC(=O)c1c(Cl)ccc(-c2ccn3nc(N)nc3c2)c1F` (single isomer, unassigned) [Example 313, 3-(2-amino-[1,2,4]triazolo[1,5-a]pyridin-7-yl)-6-chloro-N-(2,2-difluoro-3-(4-fluorophenyl)-3-hydroxypentyl)-2-fluorobenzamide], for which the concentration for half-maximal inhibition (IC50) under setting [2] turned out to be 3.8 nM.
`Nc1nc2cc(-c3ccc(Cl)c(C(=O)NCC(F)(F)C(O)c4ccc(Cl)c(Cl)n4)c3F)ccn2n1` (single isomer, unassigned) [Example 271]: under setting [2], the IC50 was determined as 1.8 nM.
On the same count and under the same terms, the result for `[2H]C([2H])([2H])C(O)(c1ccc(F)cc1)C(F)CNC(=O)c1c(Cl)ccc(-c2ccn3nc(N)nc3c2)c1F` (single isomer, unassigned) [Example 240, 3-(2-amino-[1,2,4]triazolo[1,5-a]pyridin-7-yl)-6-chloro-2-fluoro-N-(2-fluoro-3-(4-fluorophenyl)-3-hydroxybutyl-4,4,4-d3)benzamide] reads 3.1 nM.
